Columns and labels:
rice [1] = assay: Test B flooded paddy test; format: in vivo, Oryza sativa; conditions: 1000 g ai/ha, scale 0 to 100 (0 no effect, 100 complete control)
How it was run: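 Plants grow to 1- to 4-leaf stage (2–18 cm) for postemergence spraying, or to 2-leaf stage for the paddy test. Formulated compound is applied. Greenhouse holding lasts 13–15 days. Response is scored visually relative to controls, 0 no effect to 100 complete control; a dash means no result.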

velvetleaf [2] = assay: Test B pre-/postemergence herbicide test; format: in vivo, Abutilon theophrasti; conditions: for Velvetleaf plant response rating: postemergence
How it was run: (§1)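 Pre: seeds sown, then sprayed. Post: 1–4-leaf plants (2–18 cm) sprayed at the same time. Paddy: flooded, treated at 2-leaf stage. Formulation: non-phytotoxic solvent with surfactant. Greenhouse 13–15 days; visual 0–100 score relative to controls.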

blackgrass = assay: Test B postemergence herbicide test; format: in vivo, Alopecurus myosuroides; conditions: postemergence
How it was run: (§2)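 Visual ratings, 0 (no effect) to 100 (complete control), made versus controls after 13–15 d greenhouse. Paddy plants treated at 2-leaf stage; postemergence plants at 1- to 4-leaf stage, 2–18 cm tall.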

redroot pigweed = assay: Test A pre-/postemergence herbicide test; format: in vivo, Amaranthus retroflexus
How it was run: (§3)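 Both application timings were run together: directed soil spray over freshly planted seeds in sandy loam, and runoff spray onto 2–10 cm seedlings. Evaluation after ~10 days in greenhouse used a 0–100 visual scale versus untreated controls.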

wild oat = assay: Test B postemergence herbicide test; format: in vivo, Avena fatua; conditions: postemergence
How it was run: (§4)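 After treating 2-leaf paddy plants or 2–18 cm postemergence plants (1 to 4 leaves) with formulated chemical, researchers kept them in a greenhouse for 13–15 days. Effects were judged visually versus controls: 0 indicates none, 100 total control.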

rice [3] = assay: Test B pre-/postemergence herbicide test; format: in vivo, Oryza sativa; conditions: 0 = no effect, 100 = complete control, preemergence
How it was run: as §1

corn = assay: Test B pre-/postemergence herbicide test; format: in vivo, Zea mays; conditions: for Corn plant response rating: postemergence
How it was run: as §1

cocklebur = assay: Test B pre-/postemergence herbicide test; format: in vivo, Xanthium strumarium; conditions: for Cocklebur plant response rating: postemergence
How it was run: (§5)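 Visual rating, 0 (no effect) to 100 (complete control), versus untreated controls after 13–15 d in greenhouse. Pre- and postemergence applications (postemergence plants 2–18 cm, 1–4 leaves); flooded paddy arm at 2-leaf stage. Compounds in non-phytotoxic solvent plus surfactant.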

giant foxtail [4] = assay: Test B pre-/postemergence herbicide test; format: in vivo, Setaria faberi; conditions: for Foxtail, Giant plant response rating: postemergence
How it was run: as §1

barnyardgrass [5] = assay: Test B pre-/postemergence herbicide test; format: in vivo, Echinochloa crus-galli; conditions: for Barnyardgrass plant response rating: postemergence
How it was run: as §5

ducksalad = assay: Test B flooded paddy test; format: in vivo, Heteranthera limosa; conditions: 1000 g ai/ha, scale 0 to 100 (0 no effect, 100 complete control)
How it was run: as §2

barnyardgrass [6] = assay: Test B flooded paddy test; format: in vivo, Echinochloa crus-galli; conditions: 1000 g ai/ha, scale 0 to 100 (0 no effect, 100 complete control)
How it was run: as §2

large crabgrass [7] = assay: Test A pre-/postemergence herbicide test; format: in vivo, Digitaria sanguinalis
How it was run: as §3

morningglory [8] = assay: Test A pre-/postemergence herbicide test; format: in vivo, Ipomoea spp.
How it was run: as §3

barnyardgrass [9] = assay: Test A pre-/postemergence herbicide test; format: in vivo, Echinochloa crus-galli
How it was run: as §3

lambsquarters = assay: Test B pre-/postemergence herbicide test; format: in vivo, Chenopodium album; conditions: for Lambsquarters plant response rating: postemergence
How it was run: as §1

velvetleaf [10] = assay: Test A pre-/postemergence herbicide test; format: in vivo, Abutilon theophrasti
How it was run: as §3

large crabgrass [11] = assay: Test B pre-/postemergence herbicide test; format: in vivo, Digitaria sanguinalis; conditions: for Crabgrass, Large plant response rating: postemergence
How it was run: as §1

pigweed = assay: Test B pre-/postemergence herbicide test; format: in vivo, Amaranthus retroflexus; conditions: for Pigweed plant response rating: postemergence
How it was run: as §1

Surinam grass = assay: Test B pre-/postemergence herbicide test; format: in vivo, Urochloa decumbens; conditions: for Surinam Grass plant response rating: postemergence
How it was run: as §1

morningglory [12] = assay: Test B pre-/postemergence herbicide test; format: in vivo, Ipomoea coccinea; conditions: for Morningglory plant response rating: postemergence
How it was run: as §5

[13] = tested on: small flower umbrella sedge; assay: Test B flooded paddy test; format: in vivo, Cyperus difformis; conditions: 1000 g ai/ha, scale 0 to 100 (0 no effect, 100 complete control)
How it was run: as §2

giant foxtail [14] = assay: Test A pre-/postemergence herbicide test; format: in vivo, Setaria faberi
How it was run: as §3

wheat = assay: Test B postemergence herbicide test; format: in vivo, Triticum aestivum; design: key to Wheat plant response rating: 0 = no effect, 100 = complete control; conditions: postemergence
How it was run: as §4

[15] = 125 g ai/ha, visual rating, scale 0 (no effect) to 100 (complete control)
[16] = 500 g ai/ha, visual rating, 0 = no effect, 100 = complete control, preemergence
[17] = 500 g ai/ha, scale 0 to 100, 0 is no effect, 100 is complete control
[18] = Postemergence, 500 g ai/ha, 0 to 100 scale, 0 no effect, 100 complete control
[19] = Postemergence, 2000 g ai/ha, 0 to 100 scale, 0 no effect, 100 complete control
[20] = Preemergence, 2000 g ai/ha, visual rating, 0 to 100 scale (0 no effect, 100 complete control)
[21] = preemergence, 500 g ai/ha, visual injury, 0 to 100 scale (0 no effect, 100 complete control)
[22] = 125 g ai/ha, 0 = no effect, 100 = complete control, preemergence

CCn1nc(C(C)(C)C)cc1C(=O)Nc1cncc(C(=O)NCC(F)(F)F)n1 [Compound 291]
Rice plant response rating (rice [1]): 0
Velvetleaf plant response rating (velvetleaf [2]; [15]): 0
Plant response rating, Velvetleaf (velvetleaf [2]; [16]): 0
Velvetleaf plant response rating (velvetleaf [2]; [17]): 60
Blackgrass plant response rating (blackgrass; [15]): 0
Blackgrass plant response rating (blackgrass; [17]): 10
Pigweed plant response rating (redroot pigweed; [18]): 20
Plant response rating, Pigweed (redroot pigweed; [19]): 30
Pigweed plant response rating (redroot pigweed; [20]): 35
Pigweed plant response rating (redroot pigweed; [21]): 0
Oat, Wild plant response rating (wild oat; [15]): 10
Oat, Wild plant response rating (wild oat; [17]): 20
Rice plant response rating (0 to 100 scale) (rice [3]; 125 g ai/ha): 0
Plant response rating, Rice (rice [3]; 500 g ai/ha, visual rating): 0
Corn plant response rating (0 to 100 scale) (corn; [22]): 0
Corn plant response rating (corn; [15]): 0
Plant response rating, Corn (corn; [16]): 0
Corn plant response rating (corn; [17]): 60
Cocklebur plant response rating (0 to 100 scale) (cocklebur; [22]): 0
Cocklebur plant response rating (cocklebur; [15]): 0
Plant response rating, Cocklebur (cocklebur; [16]): 0
Cocklebur plant response rating (cocklebur; [17]): 10
Foxtail, Giant plant response rating (0 to 100 scale) (giant foxtail [4]; [22]): 0
Foxtail, Giant plant response rating (giant foxtail [4]; [15]): 10
Plant response rating, Foxtail, Giant (giant foxtail [4]; [16]): 0
Foxtail, Giant plant response rating (giant foxtail [4]; [17]): 80
Barnyardgrass plant response rating (0 to 100 scale) (barnyardgrass [5]; [22]): 0
Barnyardgrass plant response rating (barnyardgrass [5]; [15]): 0
Plant response rating, Barnyardgrass (barnyardgrass [5]; [16]): 0
Barnyardgrass plant response rating (barnyardgrass [5]; [17]): 30
Ducksalad plant response rating (ducksalad): 0
Barnyardgrass plant response rating (barnyardgrass [6]): 0
Crabgrass, Large plant response rating (large crabgrass [7]; [18]): 5
Plant response rating, Crabgrass, Large (large crabgrass [7]; [19]): 25
Crabgrass, Large plant response rating (large crabgrass [7]; [20]): 10
Crabgrass, Large plant response rating (large crabgrass [7]; [21]): 0
Morningglory plant response rating (morningglory [8]; [18]): 5
Plant response rating, Morningglory (morningglory [8]; [19]): 10
Morningglory plant response rating (morningglory [8]; [20]): 0
Morningglory plant response rating (morningglory [8]; [21]): 0
Barnyardgrass plant response rating (barnyardgrass [9]; [18]): 25
Plant response rating, Barnyardgrass (barnyardgrass [9]; [19]): 40
Barnyardgrass plant response rating (barnyardgrass [9]; [20]): 25
Barnyardgrass plant response rating (barnyardgrass [9]; [21]): 0
Lambsquarters plant response rating (0 to 100 scale) (lambsquarters; [22]): 0
Lambsquarters plant response rating (lambsquarters; [15]): 20
Plant response rating, Lambsquarters (lambsquarters; [16]): 0
Lambsquarters plant response rating (lambsquarters; [17]): 60
Velvetleaf plant response rating (velvetleaf [10]; [18]): 5
Plant response rating, Velvetleaf (velvetleaf [10]; [19]): 10
Velvetleaf plant response rating (velvetleaf [10]; [20]): 0
Velvetleaf plant response rating (velvetleaf [10]; [21]): 0
Crabgrass, Large plant response rating (0 to 100 scale) (large crabgrass [11]; [22]): 0
Crabgrass, Large plant response rating (large crabgrass [11]; [15]): 0
Plant response rating, Crabgrass, Large (large crabgrass [11]; [16]): 0
Crabgrass, Large plant response rating (large crabgrass [11]; [17]): 30
Pigweed plant response rating (0 to 100 scale) (pigweed; [22]): 0
Pigweed plant response rating (pigweed; [15]): 0
Plant response rating, Pigweed (pigweed; [16]): 0
Pigweed plant response rating (pigweed; [17]): 30
Surinam Grass plant response rating (0 to 100 scale) (Surinam grass; [22]): 0
Surinam Grass plant response rating (Surinam grass; [15]): 0
Plant response rating, Surinam Grass (Surinam grass; [16]): 0
Surinam Grass plant response rating (Surinam grass; [17]): 60
Morningglory plant response rating (0 to 100 scale) (morningglory [12]; [22]): 0
Morningglory plant response rating (morningglory [12]; [15]): 0
Plant response rating, Morningglory (morningglory [12]; [16]): 0
Morningglory plant response rating (morningglory [12]; [17]): 40
Sedge, Umbrella plant response rating [13]: 0
Foxtail, Giant plant response rating (giant foxtail [14]; [18]): 30
Plant response rating, Foxtail, Giant (giant foxtail [14]; [19]): 75
Foxtail, Giant plant response rating (giant foxtail [14]; [20]): 0
Foxtail, Giant plant response rating (giant foxtail [14]; [21]): 0
Wheat plant response rating (wheat; [15]): 0
Wheat plant response rating (wheat; [17]): 0

— patent US20060069132A1, “Azolecarboxamide herbicides” (priority 2004, published 2006)
